Test results taken from US20250223268A1, “4-Methylsulfonylbenzamide Compound, Preparation Method, Herbicidal Composition And Use” (Jiangsu Flag Chemical Industry Co., Ltd., priority 2022, published 2025).

Legend:
Assay type in all cases: in vivo
Echinochloa crusgalli [1] = test: Greenhouse herbicidal activity and crop safety comparison (Test Example 2); settings: Rate 150 g/ha
In short: (§1)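 Fresh weight inhibition, banded into grades A to E (E <20%), was rated 14-21 days after foliar spraying of 3-6 leaf plants, or 14-30 days after a soil spray applied 24 h post-sowing.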

Leptochloa chinensis [2] = test: as above; settings: Rate 150 g/ha
In short: as §1

[3] = system: Oryza sativa subsp. indica; test: as above; settings: Rate 150 g/ha
In short: as §1

[4] = system: Oryza sativa subsp. japonica; test: as above; settings: Rate 150 g/ha
In short: as §1

Cyperus iria = test: Greenhouse herbicidal activity assay, post-emergence; settings: Post-emergence test, rate 150 g a.i./hm^2; grade by fresh weight inhibition rate
In short: (§2)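 Weeds and crops grown in pots of nutrient soil in a growth chamber to the 3-6 leaf stage, then foliar-sprayed and air-dried. Fresh weight inhibition scored 14-21 days after treatment and graded A (≥80%) through E (<20%).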

Digitaria sanguinalis = test: as above; settings: Post-emergence test, rate 150 g a.i./hm^2; grade by fresh weight inhibition rate
In short: as §2

Echinochloa crusgalli [5] = test: as above; settings: Post-emergence test, rate 150 g a.i./hm^2; grade by fresh weight inhibition rate
In short: as §2

Eclipta prostrata = test: as above; settings: Post-emergence test, rate 150 g a.i./hm^2; grade by fresh weight inhibition rate
In short: as §2

Leptochloa chinensis [6] = test: as above; settings: Post-emergence test, rate 150 g a.i./hm^2; grade by fresh weight inhibition rate
In short: as §2

SMILES | Echinochloa crusgalli, control efficacy grading (fresh weight inhibition rate) (Echinochloa crusgalli [1]) | Leptochloa chinensis, control efficacy grading (fresh weight inhibition rate) (Leptochloa chinensis [2]) | Oryza sativa subsp. indica, grading of fresh weight inhibition rate (crop safety) [3] | Oryza sativa subsp. japonica, grading of fresh weight inhibition rate (crop safety) [4] | Control efficacy grade, Cyperus iria (Cyperus iria) | Control efficacy grade, Digitaria sanguinalis (Digitaria sanguinalis) | Control efficacy grade, Echinochloa crusgalli (Echinochloa crusgalli [5]) | Control efficacy grade, Eclipta prostrata (Eclipta prostrata) | Control efficacy grade, Leptochloa chinensis (Leptochloa chinensis [6])
CCC(C)S(=O)(=O)c1c(S(C)(=O)=O)ccc(C(=O)Nc2nnc(C)o2)c1Cl (racemic) [Compound 3-24] | A (Fresh weight inhibition rate≥80% to 100%) | A (Fresh weight inhibition rate≥80% to 100%) | E (Fresh weight inhibition rate<20%) | E (Fresh weight inhibition rate<20%) | A (Fresh weight inhibition rate≥80% to 100%) | A (Fresh weight inhibition rate≥80% to 100%) | A (Fresh weight inhibition rate≥80% to 100%) | A (Fresh weight inhibition rate≥80% to 100%) | A (Fresh weight inhibition rate≥80% to 100%)
CCC(C)S(=O)(=O)c1c(S(C)(=O)=O)ccc(C(=O)Nc2nnco2)c1Cl (racemic) [Compound 3-290] | A (Fresh weight inhibition rate≥80% to 100%) | A (Fresh weight inhibition rate≥80% to 100%) | E (Fresh weight inhibition rate<20%) | E (Fresh weight inhibition rate<20%) | A (Fresh weight inhibition rate≥80% to 100%) | A (Fresh weight inhibition rate≥80% to 100%) | A (Fresh weight inhibition rate≥80% to 100%) | A (Fresh weight inhibition rate≥80% to 100%) | A (Fresh weight inhibition rate≥80% to 100%)
Cc1nnc(NC(=O)c2ccc(S(C)(=O)=O)c(S(=O)(=O)CCC#N)c2Cl)o1 [Compound 3-201] | C (Fresh weight inhibition rate≥40% to <60%) | A (Fresh weight inhibition rate≥80% to 100%) | E (Fresh weight inhibition rate<20%) | E (Fresh weight inhibition rate<20%) | A (Fresh weight inhibition rate≥80% to 100%) | – | – | A (Fresh weight inhibition rate≥80% to 100%) | A (Fresh weight inhibition rate≥80% to 100%)
CCc1nnc(NC(=O)c2ccc(S(C)(=O)=O)c(S(=O)(=O)CC(F)(F)F)c2Cl)o1 [Compound 3-443] | C (Fresh weight inhibition rate≥40% to <60%) | A (Fresh weight inhibition rate≥80% to 100%) | E (Fresh weight inhibition rate<20%) | E (Fresh weight inhibition rate<20%) | A (Fresh weight inhibition rate≥80% to 100%) | – | – | A (Fresh weight inhibition rate≥80% to 100%) | A (Fresh weight inhibition rate≥80% to 100%)
CS(=O)(=O)c1ccc(C(=O)Nc2nnc(C3CC3)o2)c(Cl)c1S(=O)(=O)C1CCC1 [Compound 3-660] | C (Fresh weight inhibition rate≥40% to <60%) | A (Fresh weight inhibition rate≥80% to 100%) | E (Fresh weight inhibition rate<20%) | E (Fresh weight inhibition rate<20%) | A (Fresh weight inhibition rate≥80% to 100%) | – | – | A (Fresh weight inhibition rate≥80% to 100%) | A (Fresh weight inhibition rate≥80% to 100%)
